The source of these data is patent publication US8846947B2, “Benzimidazoles and related analogs as sirtuin modulators” (GlaxoSmithKline LLC, priority 2008, dated 2014).

Structures are written as SMILES. Like-named read-outs stand apart in the source and are kept apart here.

The assay deals with T1, SIRT1 (Homo sapiens, UniProt Q96EB6).
T1 sequence (Q96EB6 1-747): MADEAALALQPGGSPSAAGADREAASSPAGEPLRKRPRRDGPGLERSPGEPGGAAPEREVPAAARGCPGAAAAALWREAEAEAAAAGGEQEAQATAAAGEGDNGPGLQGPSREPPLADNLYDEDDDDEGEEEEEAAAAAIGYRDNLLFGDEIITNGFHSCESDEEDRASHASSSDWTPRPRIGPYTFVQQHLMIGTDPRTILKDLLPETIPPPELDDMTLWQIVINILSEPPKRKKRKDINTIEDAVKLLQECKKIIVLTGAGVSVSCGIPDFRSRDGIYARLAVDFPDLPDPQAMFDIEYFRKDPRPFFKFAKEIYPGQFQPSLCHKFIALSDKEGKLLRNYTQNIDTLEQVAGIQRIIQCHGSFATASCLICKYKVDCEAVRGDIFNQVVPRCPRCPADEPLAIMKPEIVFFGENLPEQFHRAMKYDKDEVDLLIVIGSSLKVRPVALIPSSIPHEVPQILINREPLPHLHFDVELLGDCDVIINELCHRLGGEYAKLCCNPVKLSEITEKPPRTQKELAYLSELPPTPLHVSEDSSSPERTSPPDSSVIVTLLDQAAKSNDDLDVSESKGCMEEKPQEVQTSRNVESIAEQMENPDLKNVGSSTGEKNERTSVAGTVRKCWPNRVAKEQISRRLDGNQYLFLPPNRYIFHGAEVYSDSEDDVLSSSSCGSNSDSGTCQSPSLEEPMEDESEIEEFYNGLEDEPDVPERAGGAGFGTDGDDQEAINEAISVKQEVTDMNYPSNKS
Put plainly: Mass spectrometry based SIRT1 deacetylase activation assay (acetylated p53-derived peptide substrate). Format: biochemical.

[1] abbreviates: 0.5 μM peptide substrate, 120 μM βNAD+, 10 nM SIRT1, 25 minutes at 25° C.
[2] abbreviates: 0.5 μM peptide substrate, 120 μM βNAD+, 10 nM SIRT1, 25 min at 25° C.
Setting [3] is: 0.5 μM peptide substrate, 120 μM βNAD+, 10 nM SIRT1, 25 min at 25° C., read-out: EC1.5.

Consider `Cc1cnc(NC(=O)c2cc(F)cc3nc(-c4ccc(F)cc4C(F)F)[nH]c23)s1` [Compound 825], for which, under setting [1], the EC1.5 entry is “A (EC1.5<1.0 uM)” and the “Fold Act. (percent maximum fold activation)” value is on record as “A (Fold activation >200%)”.
The matching figures for `CC(C)(C)NCCOc1ccccc1-c1nc2c(C(=O)Nc3ccccn3)cccc2[nH]1` [Compound 616]: “B (EC1.5 1-25 uM)” and “A (Fold activation >200%)”.
In the same order, the values of `COc1cc(C(=O)Nc2nccs2)c2nc(-c3ccccc3C(F)(F)F)[nH]c2c1` [Compound 634] are “A (EC1.5<1.0 uM)” and “A (Fold activation >200%)”.
In the same order, the values of `O=C(Nc1cccc(OC2CCNCC2)c1)c1cccc2[nH]c(-c3ccc(Cl)cc3C(F)(F)F)nc12` [Compound 598] are “A (EC1.5<1.0 uM)” and “A (Fold activation >200%)”.
For the compound `O=C(Nc1cccnc1)c1cncc2[nH]c(-c3ccccc3C(F)(F)F)nc12` [Compound 637], under setting [1], the EC1.5 entry is recorded as “A (EC1.5<1.0 uM)” and the “Fold Act. (percent maximum fold activation)” value is given as “A (Fold activation >200%)”.
In the case of `O=C(Nc1nccs1)c1cccc2[nH]c(-c3ccncc3Cl)nc12` [Compound 294], the EC1.5 entry is on record as “B (EC1.5 1-25 uM)” and the “Fold Act. (percent maximum fold activation)” value is listed as “A (Fold activation >200%)”.
On to `Cc1nc(-c2ccccc2)sc1-c1nc2c(C(=O)Nc3cccnc3)cccc2[nH]1` [Compound 410], for which the “Fold Act. (percent maximum fold activation)” value under setting [2] is recorded as “B (Fold Activation <200%)”. The EC1.5 under setting [3] was under 1000 nM.
On to `Cn1nc(C(F)(F)F)c(-c2nc3c(C(=O)Nc4cccnc4)cccc3[nH]2)c1Cl` [Compound 328], for which the EC1.5 entry is reported as “A (EC1.5<1.0 uM)” and the “Fold Act. (percent maximum fold activation)” value is “A (Fold activation >200%)”.
In the same order, the values of `Cc1cnc(NC(=O)c2cccc3[nH]c(-c4ccc(F)cc4C(F)(F)F)nc23)s1` [Compound 357] are “A (EC1.5<1.0 uM)” and “A (Fold activation >200%)”.
Consider `O=C(Nc1ccccc1)c1cccc2[nH]c(-c3ccc(F)cc3C(F)(F)F)nc12` [Compound 755], for which, under setting [1], the EC1.5 entry is given as “A (EC1.5<1.0 uM)” and the “Fold Act. (percent maximum fold activation)” value was “A (Fold activation >200%)”.
The matching figures for `O=C(Nc1ccncn1)c1cncc2[nH]c(-c3ccc(N4CCCC4)cc3C(F)F)nc12` [Compound 803]: “A (EC1.5<1.0 uM)” and “A (Fold activation >200%)”.
The matching figures for `O=C(Nc1cccc(OCC(O)CO)c1)c1cccc2[nH]c(-c3ccc(F)cc3C(F)(F)F)nc12` (centres unmarked) [Compound 705]: “A (EC1.5<1.0 uM)” and “A (Fold activation >200%)”.
In the same order, the values of `O=C(Nc1cccc(OC[C@H](O)CO)c1)c1cccc2[nH]c(-c3ccc(F)cc3C(F)F)nc12` [Compound 717] are “A (EC1.5<1.0 uM)” and “A (Fold activation >200%)”.
For the compound `O=C(Nc1nccs1)c1cccc2[nH]c(-c3ccnn3-c3ccccc3)nc12` [Compound 254], the EC1.5 entry is “A (EC1.5<1.0 uM)” and the “Fold Act. (percent maximum fold activation)” value is “A (Fold activation >200%)”.
Regarding `O=C(Nc1nccs1)c1cncc2[nH]c(-c3ccc(N4CCOCC4)cc3C(F)F)nc12` [Compound 804], under setting [1], the EC1.5 entry is “A (EC1.5<1.0 uM)” and the “Fold Act. (percent maximum fold activation)” value is “A (Fold activation >200%)”.
In the same order, the values of `O=C(Nc1cccnn1)c1cccc2[nH]c(-c3ccc(N4CCCC4)cc3C(F)F)nc12` [Compound 775] are “A (EC1.5<1.0 uM)” and “A (Fold activation >200%)”.
With `O=C(Nc1ccccn1)c1cccc2[nH]c(-c3cc(Cl)ccc3C(F)(F)F)nc12` [Compound 429], the “Fold Act. (percent maximum fold activation)” value under setting [2] is on record as “B (Fold Activation <200%)”. Also, the EC1.5 under setting [3] was over 25000 nM.
For the compound `Cc1cnc(NC(=O)c2cccc3[nH]c(-c4cccc(N5CCOCC5)c4)nc23)s1` [Compound 396], the EC1.5 entry is on record as “A (EC1.5<1.0 uM)” and the “Fold Act. (percent maximum fold activation)” value is “A (Fold activation >200%)”.
The matching figures for `Cc1nc(NC(=O)c2cccc3[nH]c(-c4ccc(F)cc4C(F)(F)F)nc23)sc1C` [Compound 358]: “A (EC1.5<1.0 uM)” and “A (Fold activation >200%)”.
Turning to `Cc1nc(N2CCOCC2)sc1-c1nc2c(C(=O)Nc3nccs3)cccc2[nH]1` [Compound 411], the “Fold Act. (percent maximum fold activation)” value under setting [2] is listed as “A (Fold activation >200%)”. For the same compound, under setting [3], the EC1.5 is under 1000 nM.
For the compound `O=C(Nc1nccs1)c1cccc2[nH]c(-c3cccc(N4CCCC4)c3)nc12` [Compound 236], the EC1.5 result was “B (EC1.5 1-25 uM)” and the “Fold Act. (percent maximum fold activation)” value is recorded as “B (Fold Activation <200%)”.
As to `O=C(Nc1cccc(CN2CCCC2)n1)c1cccc2[nH]c(-c3cc(F)ccc3C(F)(F)F)nc12` [Compound 623], under setting [1], the EC1.5 result is given as “A (EC1.5<1.0 uM)” and the “Fold Act. (percent maximum fold activation)” value is “A (Fold activation >200%)”.
As to `O=C(Nc1nccs1)c1cccc2[nH]c(-c3cc(N4CCCC4)ccc3C(F)(F)F)nc12` [Compound 664], under setting [1], the EC1.5 entry is reported as “C (EC1.5 >25 uM)” and the “Fold Act. (percent maximum fold activation)” value is given as “B (Fold Activation <200%)”.
`O=C(Nc1nccs1)c1cccc2[nH]c(-c3ccccc3OC3CCNCC3)nc12` [Compound 428, 2-(2-(piperidin-4-yloxy)phenyl)-N-(thiazol-2-yl)-1H-benzo[d]imidazole-4-carboxamide]: the “Fold Act. (percent maximum fold activation)” value under setting [2] is given as “A (Fold activation >200%)”. Also, under setting [3], the EC1.5 was under 1000 nM.
`C[C@@H]1CN(c2ccc(C(F)(F)F)c(-c3nc4c(C(=O)Nc5ccccn5)cccc4[nH]3)c2)C[C@H](C)O1` [Compound 663]: under setting [1], the EC1.5 entry is “C (EC1.5 >25 uM)” and the “Fold Act. (percent maximum fold activation)” value is “B (Fold Activation <200%)”.
In the same order, the values of `O=C(Nc1cccc(CN2CCOCC2)n1)c1cccc2[nH]c(-c3cccc(Cl)c3)nc12` [Compound 853] are “A (EC1.5<1.0 uM)” and “A (Fold activation >200%)”.
`O=C(Nc1cccc(CN2CCCC2)c1)c1cccc2[nH]c(-c3ccc(Cl)cc3C(F)(F)F)nc12` [Compound 490, 2-(4-chloro-2-(trifluoromethyl)phenyl)-N-(3-(pyrrolidin-1-ylmethyl)phenyl)-1H-benzo[d]imidazole-4-carboxamide]: the “Fold Act. (percent maximum fold activation)” value under setting [2] was “A (Fold activation >200%)”. The EC1.5 under setting [3] is under 1000 nM.
With `Cc1noc(C)c1NC(=O)c1cccc2[nH]c(-c3cccc(C(F)(F)F)c3)nc12` [Compound 261], the EC1.5 entry was “C (EC1.5 >25 uM)” and the “Fold Act. (percent maximum fold activation)” value is “B (Fold Activation <200%)”.
On to `O=C(Nc1cccnc1)c1cncc2[nH]c(-c3ccc(N4CCOCC4)cc3C(F)F)nc12` [Compound 807], for which, under setting [1], the EC1.5 entry is listed as “A (EC1.5<1.0 uM)” and the “Fold Act. (percent maximum fold activation)” value is given as “A (Fold activation >200%)”.
In the same order, the values of `Cc1cnc(NC(=O)c2cncc3[nH]c(-c4ccc(N5CCOCC5)cc4C(F)F)nc23)s1` [Compound 805] are “A (EC1.5<1.0 uM)” and “A (Fold activation >200%)”.
In the same order, the values of `O=C(Nc1cccc(OC[C@@H](O)CO)c1)c1cncc2[nH]c(-c3ccccc3C(F)(F)F)nc12` [Compound 747] are “A (EC1.5<1.0 uM)” and “A (Fold activation >200%)”.
With `O=C(Nc1cccnc1)c1cccc2[nH]c(-c3ccccc3C(F)(F)F)nc12` [Compound 243], the EC1.5 result is “A (EC1.5<1.0 uM)” and the “Fold Act. (percent maximum fold activation)” value was “A (Fold activation >200%)”.
`O=C(Nc1ccccn1)c1cc(F)cc2nc(-c3cc(F)ccc3C(F)F)[nH]c12` [Compound 837]: under setting [1], the EC1.5 entry is listed as “A (EC1.5<1.0 uM)” and the “Fold Act. (percent maximum fold activation)” value was “A (Fold activation >200%)”.
In the same order, the values of `O=C(Nc1cccc(OC2CCNCC2)c1)c1cccc2[nH]c(-c3ccc(F)cc3C(F)(F)F)nc12` [Compound 661] are “A (EC1.5<1.0 uM)” and “A (Fold activation >200%)”.
Turning to `O=C(Nc1nccs1)c1cccc2[nH]c(-c3cc(N4CCOCC4)ccc3C(F)(F)F)nc12` [Compound 448], the “Fold Act. (percent maximum fold activation)” value under setting [2] is “A (Fold activation >200%)”. The EC1.5 under setting [3] is under 1000 nM.
As for `O=C(Nc1ccncn1)c1cccc2[nH]c(-c3ccc(N4CCCC4)cc3C(F)F)nc12` [Compound 776], under setting [1], the EC1.5 entry is “A (EC1.5<1.0 uM)” and the “Fold Act. (percent maximum fold activation)” value is “A (Fold activation >200%)”.
On to `O=C(Nc1cccc2[nH]c(-c3ccccc3C(F)(F)F)nc12)c1ccccn1` [Compound 364], for which the EC1.5 entry is reported as “B (EC1.5 1-25 uM)” and the “Fold Act. (percent maximum fold activation)” value is listed as “A (Fold activation >200%)”.
